Results reported in patent publication US20250049776A1, “AUTOPHAGY INDUCING COMPOUNDS AND USES THEREOF, IN PARTICULAR FOR A SYSTEMIC TREATMENT OF DISEASES AND CONDITIONS” (Samsara Therapeutics Inc., priority 2021, published 2025).
Where two headings read alike, the source gives them in different places.

Test system: Human osteosarcoma U20S cells
Test: Assay to measure lysosome and autolysosome formation (acidic vesicle formation, LysoView/LysoTracker staining)
Type: cell-based
Details: for increase in acidic vesicle formation: relative to DMSO-treated control (10 μM); for activation at 0.8 µM: Homo sapiens
Description: Lysosomes play a fundamental role in the autophagic pathway by fusing with autophagosomes and creating ‘autolysosomes’ in order to digest their contents. Stimulation of lysosome and autolysosome formation by a compound is indicative of a stimulation of autophagy. The ability of compounds to stimulate lysosome and autolysosome formation, and thus autophagy, in live cells was assessed via fluorescent microscopy using various fluorescent stains for labelling and tracking acidic organelles (including lysosomes and autolysosomes) such as: LysoView™ 650 (70059 and 70059-T, Biotium), LysoViewTM633 (70058 and 70058-T, Biotium) and LysoTracker™ Deep Red (L12492, ThermoFisher Scientific). The cellular phenotype was quantitatively assessed for the induction of acidic vesicle formation and compared to a non-treated control, thus providing a measure of the ability of the compound under investigation to stimulate autophagy.
Representative procedure using LysoView™633 dye or LysoTracker™ Deep Red dye: Human osteosarcoma U20S cells (40,000 cells/well) were seeded in a 24 well glass bottom plate (Sensoplate, Greiner Bio-One) and were incubated overnight in a humidified atmosphere at 37° C. and 5% CO2. Cells were grown in DMEM (Gibco) supplemented with 10% Fetal Bovine Serum (FBS) and 100 units/ml penicillin and 100 μg/ml streptomycin (Invitrogen). After the attachment period, cells were treated with different compounds of interest (at various concentrations in DMSO) or DMSO (non-treated control) in cell culture medium and were incubated for 24 hours. Compound-containing medium was removed and cells were incubated with pre-warmed cell culture medium containing 1× LysoView™ 633 (70058 and 70058-T, Biotium) or 50 nM LysoTracker™ Deep Red (L12492, ThermoFisher Scientific) for 45 minutes at 37° C. Finally, cell nuclei were stained for 10 minutes using Hoechst 33342 (1 μg/mL) and then the medium was replaced with fresh medium. The 24 well plate was then fitted into a heated stage on the microscope and cells maintained at 37° C. Images were captured using appropriate filter set for Cy5 and DAPI detection with the EVOS M7000 Microscope (ThermoFisher Scientific). The cellular phenotype was visually assessed for the induction of acidic vesicle formation relative to the non-treated control; multiple images were acquired and analyzed using ImageJ or Cell Profiler.

[1] = U2OS cells, concentration of 0.8 μM, read-out: Activity (percentage increase in acidic vesicle formation over the DMSO-treated control), Table 2
[2] = U2OS cells, concentration of 0.8 μM, read-out: Activity (percentage increase in acidic vesicle formation), Table 2a Preferred compounds

Structure (SMILES): CC(C)N(C(=O)c1csc(-c2cnn(-c3ccccc3)c2)n1)C1C2CNCC1C2 (stereo not shown) [Compound 317, N-{3-azabicyclo[3.1.1]heptan-6-yl}-2-(1-phenyl-1H-pyrazol-4-yl)-N-(propan-2-yl)-1,3-thiazole-4-carboxamide]
- acidic vesicle formation relative to a DMSO-treated control (U20S cells, concentration of 10 μM, 24 hours): only a slight increase
- increase in acidic vesicle formation (U20S cells): only a slight increase

Structure (SMILES): N[C@H]1CCCN(C(=O)c2csc(-c3cnn(-c4ccccc4)c3)n2)C1 [Compound 142, (3S)-1-[2-(1-phenyl-1H-pyrazol-4-yl)-1,3-thiazole-4-carbonyl]piperidin-3-amine]
- activation at 0.8 µM [1]: 10 to 30%

Structure (SMILES): CC(C)N(C(=O)c1csc(-c2cnn(-c3ccccc3Cl)c2)n1)C1CCNCC1 [Compound 66, 2-[1-(2-chlorophenyl)-1H-pyrazol-4-yl]-N-(piperidin-4-yl)-N-(propan-2-yl)-1,3-thiazole-4-carboxamide]
- activation at 0.8 µM [1]: 10 to 30%

Structure (SMILES): CC(C)N(C(=O)c1csc(-c2cnn(-c3ccccc3)c2)n1)C1C[C@H]2C[C@@H]1CN2 (stereo partly drawn) [Compound 316, N-[(1R,4R)-2-azabicyclo[2.2.1]heptan-5-yl]-2-(1-phenyl-1H-pyrazol-4-yl)-N-(propan-2-yl)-1,3-thiazole-4-carboxamide]
- activation at 0.8 µM [1]: 30 to 50%

Structure (SMILES): CCCN(C(=O)c1csc(-c2cnn(-c3ccccc3Cl)c2)n1)[C@@H]1CCNC1 [Compound 90, 2-[1-(2-chlorophenyl)-1H-pyrazol-4-yl]-N-propyl-N-[(3R)-pyrrolidin-3-yl]-1,3-thiazole-4-carboxamide]
- activation at 0.8 µM [1]: 10 to 30%

Structure (SMILES): NCCNC(=O)c1csc(-c2cnn(-c3ccccc3)c2)n1 [Compound 162, N-(2-aminoethyl)-2-(1-phenyl-1H-pyrazol-4-yl)-1,3-thiazole-4-carboxamide]
- activation at 0.8 µM [1]: 10 to 30%

Structure (SMILES): CCCN(C(=O)c1cc(-c2cnn(-c3ccccc3)c2)cs1)[C@H]1CCNC1 [Compound 59, 4-(1-phenyl-1H-pyrazol-4-yl)-N-propyl-N-[(3S)-pyrrolidin-3-yl]thiophene-2-carboxamide]
- activation at 0.8 µM [1]: 10 to 30%

Structure (SMILES): CCCN(C(=O)c1csc(-c2cnn(-c3cccc(C)c3)c2)n1)[C@H]1CCNC1 [Compound 28, 2-[1-(3-methylphenyl)-1H-pyrazol-4-yl]-N-propyl-N-[(3S)-pyrrolidin-3-yl]-1,3-thiazole-4-carboxamide]
- activation at 0.8 µM [1]: 10 to 30%

Structure (SMILES): NCCOCCNC(=O)c1cc(-c2cnn(-c3ccccc3)c2)cs1 [Compound 110, N-[2-(2-aminoethoxy)ethyl]-4-(1-phenyl-1H-pyrazol-4-yl)thiophene-2-carboxamide]
- activation at 0.8 µM [1]: 50 to 100%
- activation at 0.8 µM [2]: 50 to 100%

Structure (SMILES): CCCN(C(=O)c1csc(-c2cnn(-c3ccccc3F)c2)n1)[C@H]1CCNC1 [Compound 92, 2-[1-(2-fluorophenyl)-1H-pyrazol-4-yl]-N-propyl-N-[(3S)-pyrrolidin-3-yl]-1,3-thiazole-4-carboxamide]
- activation at 0.8 µM [1]: 50 to 100%
- activation at 0.8 µM [2]: 50 to 100%

Structure (SMILES): CCCN(C(=O)c1csc(-c2cnn(-c3cccc(OC)c3)c2)n1)[C@@H]1CCNC1 [Compound 56, 2-[1-(3-methoxyphenyl)-1H-pyrazol-4-yl]-N-propyl-N-[(3R)-pyrrolidin-3-yl]-1,3-thiazole-4-carboxamide]
- activation at 0.8 µM [1]: 10 to 30%

Structure (SMILES): CC(C)N(C(=O)c1csc(-c2cnn(-c3ccccc3F)c2)n1)C1CCNCC1 [Compound 95, 2-[1-(2-fluorophenyl)-1H-pyrazol-4-yl]-N-(piperidin-4-yl)-N-(propan-2-yl)-1,3-thiazole-4-carboxamide]
- activation at 0.8 µM [1]: 50 to 100%
- activation at 0.8 µM [2]: 50 to 100%

Structure (SMILES): CCCN(C(=O)c1ccc(-c2cnn(-c3ccccc3)c2)o1)C1CCNC1 (stereo not shown) [Compound 140, 5-(1-phenyl-1H-pyrazol-4-yl)-N-propyl-N-(pyrrolidin-3-yl)furan-2-carboxamide]
- activation at 0.8 µM [1]: 10 to 30%

Structure (SMILES): CCCN(C(=O)c1csc(-c2cnc(-c3ccccc3)o2)n1)C1CCNC1 (stereo not shown) [Compound 116, 2-(2-phenyl-1,3-oxazol-5-yl)-N-propyl-]
- activation at 0.8 µM [1]: 50 to 100%
- activation at 0.8 µM [2]: 50 to 100%

Structure (SMILES): CCCN(C(=O)c1csc(-c2cnn(-c3cccc(OC(F)(F)F)c3)c2)n1)[C@H]1CCNC1 [Compound 25, N-propyl-N-[(3S)-pyrrolidin-3-yl]-2-{1-[3-(trifluoromethoxy)phenyl]-1H-pyrazol-4-yl}-1,3-thiazole-4-carboxamide]
- activation at 0.8 µM [1]: 10 to 30%

Structure (SMILES): CCCN(C(=O)c1csc(-c2cnn(-c3cccc(C)c3)c2)n1)[C@@H]1CCNC1 [Compound 29, 2-[1-(3-methylphenyl)-1H-pyrazol-4-yl]-N-propyl-N-[(3R)-pyrrolidin-3-yl]-1,3-thiazole-4-carboxamide]
- activation at 0.8 µM [1]: 30 to 50%

Structure (SMILES): Cc1ccccc1-n1cc(-c2nc(C(=O)N3CCC[C@@H]3CN)cs2)cn1 [Compound 86, 1-[(2R)-1-{2-[1-(2-methylphenyl)-1H-pyrazol-4-yl]-1,3-thiazole-4-carbonyl}pyrrolidin-2-yl]methanamine]
- activation at 0.8 µM [1]: 30 to 50%

Structure (SMILES): CC(C)N(C(=O)c1csc(-c2cnn(-c3ccccn3)c2)n1)C1CCNCC1 [Compound 307, N-(piperidin-4-yl)-N-(propan-2-yl)-2-[1-(pyridin-2-yl)-1H-pyrazol-4-yl]-1,3-thiazole-4-carboxamide]
- activation at 0.8 µM [1]: 50 to 100%

Structure (SMILES): CCCN(C(=O)c1csc(-c2cnn(-c3ccccc3)c2)c1)C1CCNC1 (stereo not shown) [Compound 130, 5-(1-phenyl-1H-pyrazol-4-yl)-N-propyl-N-(pyrrolidin-3-yl)thiophene-3-carboxamide]
- activation at 0.8 µM [1]: 10 to 30%

Structure (SMILES): CCCN(C(=O)c1cc(-c2cnn(-c3ccccc3)c2)cs1)C1CCNC1 (stereo not shown) [Compound 141, 4-(1-phenyl-1H-pyrazol-4-yl)-N-propyl-N-(pyrrolidin-3-yl)thiophene-2-carboxamide]
- activation at 0.8 µM [1]: 50 to 100%
- activation at 0.8 µM [2]: 50 to 100%

Structure (SMILES): COc1cccc(-n2cc(-c3nc(C(=O)N4CCC[C@@H]4CN)cs3)cn2)c1 [Compound 50, 1-[(2R)-1-{2-[1-(3-methoxyphenyl)-1H-pyrazol-4-yl]-1,3-thiazole-4-carbonyl}pyrrolidin-2-yl]methanamine]
- activation at 0.8 µM [1]: 50 to 100%
- activation at 0.8 µM [2]: 50 to 100%

Structure (SMILES): Cc1ccccc1-n1cc(-c2nc(C(=O)N(C(C)C)C3CCNCC3)cs2)cn1 [Compound 84, 2-[1-(2-methylphenyl)-1H-pyrazol-4-yl]-N-(piperidin-4-yl)-N-(propan-2-yl)-1,3-thiazole-4-carboxamide]
- activation at 0.8 µM [1]: 10 to 30%

Structure (SMILES): CCCN(C(=O)c1ccc(-c2cnn(-c3ccccc3)c2)[nH]1)[C@H]1CCNC1 [Compound 93, 5-(1-phenyl-1H-pyrazol-4-yl)-N-propyl-N-[(3S)-pyrrolidin-3-yl]-1H-pyrrole-2-carboxamide]
- activation at 0.8 µM [1]: > 100%
- activation at 0.8 µM [2]: 50 to 100%
- Activity (percentage increase in acidic vesicle formation), Table 2b More preferred compounds (U2OS cells, concentration of 0.8 μM): ++++ (a percentage increase in acidic vesicle of greater than 100% over the DMSO-treated control)

Structure (SMILES): CCCN(C(=O)c1csc(-c2cnn(-c3ccccc3)c2)c1)[C@H]1CCNC1 [Compound 42, 5-(1-phenyl-1H-pyrazol-4-yl)-N-propyl-N-[(3S)-pyrrolidin-3-yl]thiophene-3-carboxamide]
- activation at 0.8 µM [1]: 10 to 30%

Structure (SMILES): O=C(NCC1CCNCC1)c1cc(-c2cnn(-c3ccccc3)c2)cs1 [Compound 111, 4-(1-phenyl-1H-pyrazol-4-yl)-N-[(piperidin-4-yl)methyl]thiophene-2-carboxamide]
- activation at 0.8 µM [1]: 30 to 50%

Structure (SMILES): CCCN(C(=O)c1csc(-c2cnn(-c3ccccc3Cl)c2)n1)[C@H]1CCNC1 [Compound 89, 2-[1-(2-chlorophenyl)-1H-pyrazol-4-yl]-N-propyl-N-[(3S)-pyrrolidin-3-yl]-1,3-thiazole-4-carboxamide]
- activation at 0.8 µM [1]: 10 to 30%

Structure (SMILES): CC(C)N(C(=O)c1csc(-c2cnn(-c3cccnn3)c2)n1)C1CCNCC1 [Compound 323, N-(piperidin-4-yl)-N-(propan-2-yl)-2-[1-(pyridazin-3-yl)-1H-pyrazol-4-yl]-1,3-thiazole-4-carboxamide]
- activation at 0.8 µM [1]: 30 to 50%
- increase in acidic vesicle formation (U20S cells): only a slight increase

Structure (SMILES): CCCN(C(=O)c1csc(-c2cnn(-c3ccc(C)cc3)c2)n1)[C@@H]1CCNC1 [Compound 65, 2-[1-(4-methylphenyl)-1H-pyrazol-4-yl]-N-propyl-N-[(3R)-pyrrolidin-3-yl]-1,3-thiazole-4-carboxamide]
- activation at 0.8 µM [1]: 30 to 50%

Structure (SMILES): NC1CCCN(C(=O)c2csc(-c3cnn(-c4ccccc4)c3)n2)C1 (stereo not shown) [Compound 167, 1-[2-(1-phenyl-1H-pyrazol-4-yl)-1,3-thiazole-4-carbonyl]piperidin-3-amine]
- activation at 0.8 µM [1]: 10 to 30%

Structure (SMILES): NCCOCCNC(=O)c1ccc(-c2cnn(-c3ccccc3)c2)o1 [Compound 101, N-[2-(2-aminoethoxy)ethyl]-5-(1-phenyl-1H-pyrazol-4-yl)furan-2-carboxamide]
- activation at 0.8 µM [1]: 30 to 50%
